Measurements taken from patent publication US20230104578A1, “ANTI-ADRENOMEDULLIN (ADM) ANTIBODY OR ANTI-ADM ANTIBODY FRAGMENT OR ANTI-ADM NON-IG SCAFFOLD FOR USE IN THERAPY OR PREVENTION OF SHOCK” (ADRENOMED AG, priority 2020, published 2023).

Key:
[1] = test system: patients with septic shock; assay: AdrenOSS-2 phase II clinical trial in septic shock with elevated adrenomedullin; format: in vivo, human
Excerpt: AdrenOSS-2 is a double-blind, placebo-controlled, randomized, multicenter, proof of concept and dose-finding phase II clinical trial to investigate the safety, tolerability and efficacy of the N-terminal ADM antibody named Adrecizumab in patients with septic shock and elevated adrenomedullin (Geven et al. BMJ Open 2019;9:e024475). In total, 301 patients with septic shock and bio-ADM concentration >70 pg/mL were randomized (2:1:1) to treatment with a single intravenous infusion over approximately 1 hour with either placebo (n=152), adrecizumab 2 ng/kg (n=72) or adrecizumab 4 ng/kg (n=77). All-cause mortality within 28 (90) days after inclusion was 25.8% (34.8%). Mean age was 68.4 years and 61% were male. For the per protocol analysis, n=294 patients remained eligible, and 14-day all-cause mortality rate was 18.5%.
In patients treated with Adrecizumab (both doses combined, per protocol population), a trend to lower short term mortality (14 days post admission) was observed compared to placebo (Hazard ratio (HR) 0.701 [0.408-1.21], p=0.100) (FIG. 8).
No such interaction was detected which in other words means, that the beneficial treatment effect was detectable for all patients independent of their pre-dose bio-ADM concentration.
This is further illustrated in Kaplan Meier Plots, where the patient populations were separated by their pre-dose bio-ADM concentration (below/above bio-ADM median) (see FIG. 11a and FIG. 11b).

[2] = test system: mice with CLP-induced sepsis; settings: pre-treatment; cited from earlier work
[3] = test system: endotoxemic rats; settings: pre-treatment; cited from earlier work

**Q.** Which “HR, 14-day mortality vs placebo” value ([1]; DPP3 above 50 ng/mL, n=44) does the source give for “Adrecizumab: humanized version of an N-terminal anti-ADM antibody; heavy chain SEQ ID NO: 32, light chain SEQ ID NO: 33” here?
**A.** 1.69

**Q.** What about the “HR, 14-day mortality vs placebo” value ([1]; pre-dose DPP3 < 50 ng/mL, n=244) of the same substance?
**A.** 0.426

**Q.** And the “HR, 14-day mortality vs placebo” value ([1]; pre-dose DPP3 < 40, n=227)?
**A.** 0.385

**Q.** What about the “HR, 14-day mortality vs placebo” value ([1]; pre-dose DPP3 < 60, n=254) of the same substance?
**A.** 0.449

**Q.** And the “HR, 14-day mortality vs placebo” value ([1]; pre-dose DPP3 < 70, n=261)?
**A.** 0.546

**Q.** And the “HR, 14-day mortality vs placebo” value ([1]; pre-dose DPP3 < 90, n=273)?
**A.** 0.606

**Q.** What about the renal vascular leakage [2] of the same substance?
**A.** attenuated renal vascular leakage

**Q.** And the renal vascular leakage [3]?
**A.** attenuated renal vascular leakage
